Laboratory results taken from US6803367B2, “Substance for inducing apoptosis” (Takara Shuzo Co., Ltd., priority 1997, dated 2004).

What was measured:
Assay type in all cases: cell-based, human
HL-60 cells [1] = test: Observation of apoptotic body in HL-60 cells under a microscope
Protocol: (§1) To each of the wells of a 96-well microtiter plate was added 1000, 500, 250, 125, 62.5 or 31.3 μg/ml aqueous solution of imidazolylcyclopentenone obtained in Example 1-(2) or 10 μl of water as a control. HL-60 (ATCC CCL-240) was suspended in an RPMI 1640 medium containing 10% of fetal calf serum to make the concentration 5×10^4 cells/ml and each 90 μl thereof was placed in each well of the above-mentioned microtiter plate and incubated at 37° C. for 48 hours in the presence of 5% carbon dioxide. Incubation was conducted for four hours more after addition of 10 μl of a solution (5 mg/ml) of 3-(4,5-dimethylthiazol-2-yl)-2,5-diphenyltetrzolium bromide (MTT; manufactured by Sigma) in a phosphate-buffered saline solution and the state of growth of the cells was observed under a microscope. Further, 100 μl of 2-propanol containing 0.04N hydrochloric acid was added followed by stirring and an absorbance at 590 nm was measured.
As a result of observation under a microscope, production of apoptotic body was confirmed.
Main peaks and the fractions between them were collected and evaporated to dryness in vacuo, each of the fractions was diluted to an extent of 3- or 9-fold with water and their activity of growth inhibition of HL-60 cells was measured by the same way as in Example 3 except that 5 μl of the sample were added to each well and the incubation was conducted for 18 hours. […]

HL-60 cells [2] = test: Growth inhibition of HL-60 cells (MTT, 96-well microtiter plate); details: for activity of growth inhibition of cancer cells: 5 μl per well, 18 hours incubation
Protocol: as §1
The non-adsorbed fraction of Example 4 was adjusted to pH 3 with HCl and heated at 121° C. for 1 hour. The resulting heat-treated solution was diluted with aseptic water to an extent of 2-, 4-, 8-, 16-, 32- or 64-fold and its activity of growth inhibition of HL-60 cells was measured by the same way as in Example 3.
Main peaks and the fractions between them were collected and evaporated to dryness in vacuo, each of the fractions was diluted to an extent of 3- or 9-fold with water and their activity of growth inhibition of HL-60 cells was measured by the same way as in Example 3 except that 5 μl of the sample were added to each well and the incubation was conducted for 18 hours. […] Production of apoptotic body was confirmed as well.
The growth inhibiting activity of a 1 mM aqueous solution of MC2 and a 350 μM aqueous solution of HMC2 obtained in Example 10 to HL-60 cells was measured by the same way as in Example 3.

HL-60 cells [3] = test: Viable and dead cell counting of HL-60 cells by Trypan Blue staining
Protocol: (§2) HL-60 cells (ATCC CCL240) which were incubated at 37° C. in an RPMI 1640 medium (manufactured by Nissui) containing 10% of fetal calf serum (manufactured by Gibco) treated at 56° C. for 30 minutes were suspended in the above medium to make the concentration 2.5×10^5 cells/4.5 ml. To this suspension was added 0.5 ml of 10 μM, 20 μM, 40 μM or 80 μM aqueous solution of S-1127 followed by incubating at 37° C. in the presence of 5% carbon dioxide gas for 15 hours or 39 hours.
(§3) Incidentally, such a phenomenon was not observed in the water-added control section.
In FIG. 31, ◯ indicates the case where 10 μM of S-1127 was added; Δ indicates the case where 20 μM of S-1127 was added; □ indicates the case where 40 μM of S-1127 was added; X indicates the case where 80 μM of S-1127 was added and ● indicates the control where water was added.

HL-60 cells [4] = test: DNA fragmentation in HL-60 cells by agarose gel electrophoresis; details: after incubation for 15 hours; concentration of the aqueous solution added (0.5 ml to 4.5 ml suspension)
Protocol: as §2, §3

Question: How did the “apoptotic body under an optical microscope” value (HL-60 cells [1]; final concentration 100 μM) turn out when `COC1=CC(OC)CC1=O` (stereo not shown) [MC2, 2,4-dimethoxy-2-cyclopenten-1-one] was run?
Answer: observed

Question: And the “growth of the cells” value (HL-60 cells [2]; 1 mM solution added, final concentration 100 μM, HL-60)?
Answer: inhibited

Question: With `CC(=O)Nc1ccc(O)c(O)c1O` [N-(2,3,4-trihydroxyphenyl)acetamide] as the compound, how does the “production of apoptotic body” value (HL-60 cells [1]; Example 6, 18 hours incubation) read?
Answer: confirmed

Question: What about the “activity of growth inhibition of cancer cells” value (HL-60 cells [2]; 3-fold diluted solution of the HPLC fraction, HL-60) of the same compound?
Answer: activity of growth inhibition of cancer cells was noted

Question: What about the “activity of growth inhibition of cancer cells” value (HL-60 cells [2]; undiluted aqueous solution of the HPLC fraction, HL-60) of the same compound?
Answer: activity of growth inhibition of cancer cells was noted

Question: How did the “growth of the cells versus water-added control section” value (HL-60 cells [2]; 4 mg/ml added, HL-60) turn out when `CC(=O)N[C@H]1C(O)O[C@H](CO)[C@H](O)[C@@H]1O` (stereo partly shown) [N-acetylgalactosamine, reference compound] was run?
Answer: no difference

Question: What does the source list for `O=CC(=CCc1ccc(O)cc1)c1ccc(O)cc1` [S-1127, 2,4-bis(p-hydroxyphenyl)-2-butenal]?
Answer: living cell numbers compared with the water-added control section (HL-60 cells [3]; 20 μM added, after incubation of 39 hours): significantly decreased; concentration at which cells were killed (HL-60 cells [3]; after incubation of 15 hours, concentration of the aqueous solution added (0.5 ml to 4.5 ml suspension)): ≥ 40 µM; concentration at which fragmentation of DNA was noted (HL-60 cells [4]): ≥ 20 µM

Question: `O=C1CC(n2ccnc2)C=C1O` (stereo not shown) [imidazolylcyclopentenone, 2-hydroxy-4-(1-imidazolyl)-2-cyclopenten-1-one] was tested. Which “concentration at which the growth of HL-60 cells was completely inhibited” value (HL-60 cells [2]; final concentration, 48 hours incubation, MTT) did it give?
Answer: 6.25 µg/mL
